Literature values, collected in EP3954777A1, “METHOD FOR ENZYMATIC DEGRADATION OF BITTER COMPOUNDS IN AGRO-INDUSTRIAL BY-PRODUCTS” (SternEnzym GmbH & Co. KG, priority 2020, dated 2022).

System: human test persons
Conditions: bitter taste

## kaempferol 3-O-(2"'-O-sinapoyl-β-sophoroside)
Average (Hald et al., 2019)
  level that, on average, can be tasted by humans: 3.4 µmol/L
Lowest (Hald et al., 2019)
  lowest level detectable by human test persons: 1.7 µmol/L
